Each structure is given as a SMILES string.

For this test, the system named is T1, Ps-Grx3.
T1 construct: full length, 87 residues (264 bp ORF), class I dithiol Grx with CPYC motif
As to the kind of experiment: GR-coupled NADPH oxidation at […] nm, Lineweaver-Burk. The class given is biochemical, Psychrobacter sp. ANT206. The conditions noted are these: 100 mM Tris-HCl pH 8.0, 25 °C; 1.0 mM GSH, 0.2 mM NADPH, 0.6 μg/mL GR; substrate 0.5-2.0 mM.
As a reminder, the Km is the substrate concentration at which the rate is half of its maximum. In the case of `O=C1O[C@H]([C@@H](O)CO)C(=O)C1=O` [DHA, dehydroascorbate], the Km was found to be 650 µM.
As to `OCCSSCCO` [HED, 2-Hydroxyethyl disulfide], the Km was 690 µM.
Take `N[C@@H](CSSC[C@H](N)C(=O)O)C(=O)O` [L-cystine]: the Km amounted to 520 µM.
Consider `N[C@@H](CSS(=O)(=O)O)C(=O)O` [S-sulfocysteine], for which the Km is 790 µM.
